From patent publication US20250375453A1, “HIGH-EFFICIENCY ANTIMICROBIAL COMPOSITION” (CM4CURE S.A., priority 2023, published 2025)

How the values were obtained:
[1] = tested on: Staphylococcus aureus (MRSA); experiment: MIC in monotherapy and in combination therapy (ISO standard 20776-1); type: cell-based
Excerpt: (§1) Summary of MIC Values for Fluometacyl (FLC)+Chlorhexidine (CHX) Tested Against MRSA, Enterococcus faecalis (VRE), Pseudomonas aeruginosa (PA) and Candida albicans (CA).
(§2) By Minimum Inhibitory Concentration (MIC) one means the lowest concentration of antimicrobial that prevents visible growth of a microorganism (determined according to ISO standard 20776-1).
(§3) This finds an implication in combining many known antimicrobials together rather than discovering new chemical entities.

[2] = tested on: Pseudomonas aeruginosa (PA); experiment: as above; type: cell-based
Excerpt: as §1, §2, §3

Candida albicans (CA) = experiment: as above; type: cell-based
Excerpt: as §1, §2, §3

[3] = cited from earlier work
[4] = tested on: Vancomycin-resistant Enterococcus faecalis (VRE, ATCC BAA-2573); experiment: Synergy checkerboard assay / broth micro-dilution MIC (ISO 20776-1 with modifications); type: cell-based
Protocol: • 1. Preparation of the inoculum of Vancomycin-resistant Enterococcus faecalis (VRE, ATCC BAA-2573). Inoculum is prepared by suspension of 1 colony of bacteria (medium size colony from Tryptic Soy agar plate) in 3 ml of Tryptic Soy broth (TSB) using a 200 μL tip. The solution is mixed by vortexing and incubated at 37° C. overnight (19-24 hours) under shaking at 200 rpm. • 2. Preparation of the Antimicrobial dilution on the day of the experiment. Stock solutions are performed with distilled water for all antimicrobial compound except for Fluometacyl (ethanol). Dilution for each condition is made in Mueller-Hinton broth (NMB). 50p of APIs dilution is added to wells of a 96 wells microplate (each condition in duplicate-triplicate). • Antimicrobial compounds were prepared as follows: • Fluometacyl (F) (4 mg/mL in 100% EtOH) served as a master stock. To obtain the final concentration of 40 μg/ml in the bacterial suspension, initial stock of 160 μg/ml in Mueller-Hinton broth (MHB) was prepared and further 2-fold diluted using the following serial dilution scheme: • (1): 40 μg/ml (160 μg/ml, prepared in MHB) • (2): 20 μg/ml (80 μg/ml, dilution in MHB) • (3): 10 μg/ml (40 μg/ml, dilution in MHB) • (4): 5 μg/ml (20 μg/ml, dilution in MHB) • (5): 2.5 μg/ml (10 μg/ml, dilution in MHB) • (6): 1.25 μg/ml (5 μg/ml, dilution in MHB) • Chlorhexidine acetate (CHLX) (2 mg/mL in H2O) served as a master stock. To obtain the final concentration of 4 μg/ml in the bacterial suspension, initial stock of 16 μg/ml in MHB was prepared and further 2-fold diluted using the following serial dilution scheme: • (1): 8 μg/ml (32 μg/ml, prepared in MHB) • (2): 4 μg/ml (16 μg/ml, prepared in MHB) • (3): 2 μg/ml (8 μg/ml, dilution in MHB) • (4): 1 μg/ml (4 μg/ml, dilution in MHB) • (5): 0.5 μg/ml (2 μg/ml, dilution in MHB) • (6): 0.25 μg/ml (1 μg/ml, dilution in MHB) • 3. Preparation of VRE. Before the experiment, the VRE bacterial suspension (incubated overnight) is diluted 100× in TSB in 4 mL of TSB and grown at 37 C under agitation 200 rpm until OD600 reaches 0.08 to 0.16. This corresponds to the cell density […]. 100 μl of the bacterial solution (OD600 ranging from 0.08 to 0.16) is added to 9 900 μL of Mueller-Hinton Broth (MHB) (dilution 1:100). • 4. Preparation of a 96-well plate. 100 μL of bacteria (diluted 1:100 in MHB from the point 3) is added in each well of the plate containing 100 μL of the serially diluted APIs alone or in combinations as shown in the p. 2. Bacteria should be added into the 96-well plate within the 30 minutes following the preparation of the bacteria in order to maintain the same number of CFU/mL. Plates are incubated at 37° C. overnight. A condition with MHB medium alone or bacteria without APIs will also be added as the control conditions. Since fluometacyl is dissolved in ethanol, extra conditions are added: MHB with ethanol in order to assess the effect of ethanol on bacterial growth. • Following scheme is applied: • 2 antibacterial compounds: 50 μL of a antimicrobial 1+50 μL of a antimicrobial 2+100 μL of bacterial suspension in MHB • 1 antibacterial compound: 50 μL of a drug 1/2+50 μL of MHB+100 μL of bacterial suspension in MHB • Growth control: 100 μL MHB (+/−Ethanol)+100 μL of bacterial suspension • BLANK: MHB only • 5. CFU counting of the initial challenge inoculum. 10 μL of the solution of the bacteria used as the positive control is diluted in 10 mL of TSB. 100 μL is spread on Tryptic Soy agar (done in triplicate) and incubated at 37° C. overnight • 6. Results. The MIC is the lowest concentration that inhibits completely the visible growth of the bacteria (no turbidity in a well). The OD at 600 nm is also recorded for each well as back-up data.
Synergy evaluation resulting from the comparison between activity of the combination of the antimicrobial compounds and their individual activities was represented as the Fractional Inhibitory Concentration (FIC) index value. […]

[5] = tested on: Staphylococcus aureus (MRSA, ATCC 6538); experiment: Real-time microcalorimetric measurement of bacterial metabolic activity (heat flow, Calscreener); type: cell-based
Protocol: Staphylococcus aureus (MRSA, ATCC 6538) was grown overnight in TSB (tryptic soy broth) medium, before being diluted 1×10^6 fold in fresh TSB. Subsequently […] aliquots of diluted bacteria suspensions were respectively supplemented with 1 and 2 mg/L of chlorhexidine (digluconate solution, 20% in H2O, Merck). […] The aqueous solution of chlorhexidine and the ethanol-based solution of triafluocyl were kept refrigerated. Chlorhexidine, triafluocyl or both, and ethanol as a vehicle were added to the bacterial suspensions to obtain the given concentrations followed by a brief vortexing. Bacterial aliquots were then distributed in the dedicated non-activated inserts of a 48-well plate and grown for 24 h or more under static conditions at 37 C using Calscreener technology to measure bacterial growth and metabolic activity in Real-Time as described in https://cordis.europa.eu/project/id/784514.
Staphylococcus aureus (MRSA, ATCC 6538) was grown overnight in TSB (tryptic soy broth) medium, before being diluted 1×10^6 fold in fresh TSB. Subsequently […] aliquots of diluted bacteria suspensions were respectively supplemented with 0.25, 0.5 and 1 μg/mL of chlorhexidine (digluconate solution, 20% in H2O, Merck) or alexidine dihydrochloride (stock solution of 3 mg/mL in ethanol, Merck).
The aqueous solution of chlorhexidine and the ethanol-based solution of alexidine were kept refrigerated. Chlorhexidine, alexidine, and ethanol as a vehicle were added to the bacterial suspensions to obtain the given concentrations followed by a brief vortexing. Bacterial aliquots were then distributed in the dedicated non-activated inserts of a 48-well plate and grown for 24 h or more under static conditions at 37 C using Calscreener technology to measure bacterial growth and metabolic activity in Real-Time as described in https://cordis.europa.eu/project/id/784514.
Staphylococcus aureus (MRSA, ATCC 6538) was grown overnight in TSB (tryptic soy broth) medium, before being diluted 1×10^6 fold in fresh TSB. Subsequently […] aliquots of diluted bacteria suspensions were respectively supplemented with […] of alexidine dihydrochloride (stock solution of 3 mg/mL in ethanol, Merck). […] The ethanol-based solutions of alexidine and fluometacyl were stored at −20° C.
Alexidine alone or with fluometacyl, and ethanol as a vehicle were added to the bacterial suspensions to obtain the given concentrations followed by a brief vortexing. Bacterial aliquots were then distributed in the dedicated non-activated inserts of a 48-well plate and grown for 24 h or more under static conditions at 37 C using Calscreener technology to measure bacterial growth and metabolic activity in Real-Time.

[6] = tested on: Pseudomonas aeruginosa (ATCC 15442); experiment: as above; type: cell-based
Protocol: Pseudomonas aeruginosa (ATCC 15442) was grown overnight in TSB (tryptic soy broth) medium, before being diluted 1×10^7 fold in fresh TSB. Subsequently […] aliquots of diluted bacteria suspensions were respectively supplemented with 1, 2, 4, 6, 12 and 24 mg/L of chlorhexidine (digluconate solution, 20% in H2O, Merck). The aqueous solution of chlorhexidine was kept refrigerated according to the manufacturer's technical sheet. Chlorhexidine or mQH2O as a vehicle were added to the bacterial suspensions to obtain the given concentrations followed by a brief vortexing. Bacterial aliquots were then distributed in the dedicated non-activated inserts of a 48-well plate and grown for 24h or more under static conditions at 37 C using Calscreener technology to measure bacterial growth and metabolic activity in Real-Time as described in https://cordis.europa.eu/project/id/784514.
For the study of the combination of chlorhexidine and triafluocyl aforementioned diluted bacterial suspensions were supplemented with either chlorhexidine alone (1, 2, 4, 6, 12 mg/L) or mixed with triafluocyl (20 mg/L, Polpharma). Triafluocyl was stored in absolute ethanol in the refrigerator at a concentration of 3 mg/mL. Triafluocyl, chlorhexidine or both, and ethanol as a vehicle were added to the bacterial suspensions to obtain the given concentrations.
Pseudomonas aeruginosa (ATCC 15442) was grown overnight in TSB (tryptic soy broth) medium, before being diluted 1×10^7 fold in fresh TSB. Subsequently […] aliquots of diluted bacteria suspensions were respectively supplemented with […] of alexidine dihydrochloride (stock solution of 3 mg/mL in ethanol, Merck). […] The stock solutions of alexidine and fluometacyl were kept frozen according to the manufacturer's technical sheet. Alexidine alone or with fluometacyl, and ethanol as a vehicle were added to the bacterial suspensions to obtain the given concentrations followed by a brief vortexing. […]

[7] = MIC combination / MIC monotherapy

CCCSc1nc(N[C@@H]2C[C@H]2c2ccc(F)c(F)c2)c2nnn([C@@H]3C[C@H](O)[C@@H](O)[C@H]3O)c2n1 [Fluometacyl, (1S,2R,3S,4R)-4-[7-[[(1R,2S)-2-(3,4-Difluorophenyl)cyclopropyl]amino]-5-(propylthio)-3H-1,2,3-triazolo[4,5-d]pyrimidin-3-yl]-1,2,3-cyclopentanetriol]
Ratio Y/X [1, 7]: 0.25-0.5
MIC ([1]; Staphylococcus aureus, MRSA, antimicrobial alone, read-out: MIC Monotherapy (X)): 20 mg/mL
MIC combination dual therapy (Y) ([1]; in FLC + CHX combination): 5 to 10 mg/mL
MIC Monotherapy (X) ([2]; antimicrobial alone): Not detected
MIC combination dual therapy (Y) ([2]; in FLC + CHX combination): 20 mg/mL
MIC Monotherapy (X) (Candida albicans (CA); antimicrobial alone): Not detected
MIC combination dual therapy (Y) (Candida albicans (CA); in FLC + CHX combination): 20 mg/mL
solubility in an aqueous environment or aqueous medium [3]: generally not soluble
MIC ([4]; Enterococcus faecalis, antimicrobial alone, read-out: MIC Monotherapy (X)): 20 mg/mL
Ratio Y/X [4, 7]: 0.125-0.5
MIC combination dual therapy (Y) ([4]; in FLC + CHX combination): 2.5 to 10 mg/mL

CCCSc1nc(N[C@@H]2C[C@H]2c2ccc(F)c(F)c2)c2nnn([C@@H]3C[C@H](OCCO)[C@@H](O)[C@H]3O)c2n1 [Triafluocyl, (1S,2S,3R,5S)-3-[7-[(1R,2S)-2-(3,4-difluorophenyl)cyclopropylamino]-5-(propylthio)-3H-[1,2,3]-triazolo[4,5-d]pyrimidin-3-yl]-5-(2-hydroxyethoxy)-1,2-cyclopentanediol]
effect on growth (heat flow) ([5]; triafluocyl 1 mg/L alone): doesn't affect the growth
solubility in an aqueous environment or aqueous medium [3]: generally not soluble
effect on growth (heat flow) ([6]; triafluocyl 20 mg/L alone): does not inhibit the growth

alexidine
effect on growth (heat flow) ([5]; alexidine 1 mg/mL alone): full growth inhibition
effect on metabolic activity (heat flow), compared with chlorhexidine ([5]; alexidine 0.25 and 0.5 mg/mL alone): noticeably stronger effect
effect on growth (heat flow) ([6]; alexidine 4 mg/mL alone): strong growth inhibition
